Where a SMILES comes first, the peptide text is derived from it. Where no end group is shown, it is not given here.
Columns and labels:
sPLA2 [1] = conditions: known selective sPLA2 inhibitor; cited from earlier work
sPLA2 [2] = assay: Inhibition of sPLA2 activity at fixed concentrations; format: biochemical
[3] = molecular target: T1, serum group IIA secretory phospholipase A2 (Homo sapiens, UniProt P14555); conditions: patients with severe sepsis; cited from earlier work
T1 construct: host or cells: patients' serum
T1 sequence (P14555 21-144): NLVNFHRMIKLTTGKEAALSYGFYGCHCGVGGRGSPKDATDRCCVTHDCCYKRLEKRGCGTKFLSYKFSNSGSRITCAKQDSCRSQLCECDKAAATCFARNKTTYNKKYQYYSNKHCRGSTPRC

[4] = molecular target: T2, 100-kDa human recombinant cytosolic form of PLA2 (cPLA2) (Homo sapiens, UniProt P47712); assay: PLA2 inhibition, E. coli membrane assay, cPLA2; format: biochemical; conditions: human recombinant cPLA2; read-out: IC50 (mean±SD; n=3)
T2 sequence (P47712 1-749): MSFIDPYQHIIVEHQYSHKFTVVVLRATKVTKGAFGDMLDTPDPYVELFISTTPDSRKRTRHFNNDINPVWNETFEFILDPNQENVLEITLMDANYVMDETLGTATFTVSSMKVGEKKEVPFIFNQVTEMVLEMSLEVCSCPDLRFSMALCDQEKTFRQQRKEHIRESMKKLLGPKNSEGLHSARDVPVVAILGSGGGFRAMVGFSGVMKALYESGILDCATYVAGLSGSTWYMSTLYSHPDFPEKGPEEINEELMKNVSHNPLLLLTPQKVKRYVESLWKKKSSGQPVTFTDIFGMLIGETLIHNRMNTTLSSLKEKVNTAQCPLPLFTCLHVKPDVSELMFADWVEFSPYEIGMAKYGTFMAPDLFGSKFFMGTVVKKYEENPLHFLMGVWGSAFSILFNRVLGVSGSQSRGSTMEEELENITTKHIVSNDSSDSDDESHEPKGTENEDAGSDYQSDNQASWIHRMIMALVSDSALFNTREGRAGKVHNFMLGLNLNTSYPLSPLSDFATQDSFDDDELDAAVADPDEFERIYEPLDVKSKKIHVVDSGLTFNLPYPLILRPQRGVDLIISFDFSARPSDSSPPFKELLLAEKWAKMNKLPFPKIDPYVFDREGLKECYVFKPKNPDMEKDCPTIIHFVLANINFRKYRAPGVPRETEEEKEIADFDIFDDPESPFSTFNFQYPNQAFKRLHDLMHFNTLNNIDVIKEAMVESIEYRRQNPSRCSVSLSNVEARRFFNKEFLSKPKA

[5] = molecular target: snake venom PLA2 (crotoxin B) (Crotalus durissus terrificus, UniProt P0CAS2); assay: biochemical
Sequence of snake venom PLA2 (crotoxin B) (P0CAS2 whole entry, looked up): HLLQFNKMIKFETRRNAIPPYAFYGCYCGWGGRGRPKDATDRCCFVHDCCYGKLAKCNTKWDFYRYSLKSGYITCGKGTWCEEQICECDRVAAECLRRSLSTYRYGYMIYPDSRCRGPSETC

[6] = molecular target: T3, Group IIA purified human synovial sPLA2 (Homo sapiens, UniProt P14555); assay: In vitro inhibition of purified human synovial sPLA2, 3H-labelled E. coli membranes; format: biochemical; conditions: 3H-labelled E. coli membranes as substrate
T3 construct: purchased Cayman, USA
T3 sequence (P14555 21-144): T1 sequence (P14555 21-144)

[7] = molecular target: T4, arthritis synovial fluid (human type IIA sPLA2) (Homo sapiens, UniProt P14555); assay: PLA2 inhibition, E. coli membrane assay, arthritis synovial fluid sPLA2; format: biochemical; conditions: read-out: IC50 (mean±SD; n=3)
T4 construct: arthritis synovial fluid (human type IIA sPLA2); from tissue; host or cells: human arthritis synovial fluid
T4 sequence (P14555 21-144): T1 sequence (P14555 21-144)

crotoxin B (Group IIA) = crotoxin B (Group IIA) (Crotalus durissus terrificus, UniProt P0CAS2)
β-bungarotoxin (Group I) = β-bungarotoxin (Group I) (Bungarus multicinctus, UniProt P00617)
human recombinant cPLA2 = molecular target: T5, human recombinant cPLA2 (Homo sapiens, UniProt P47712); format: binding
T5 sequence (P47712 1-749): T2 sequence (P47712 1-749)

[8] = molecular target: bee (Apis mellifera) venom PLA2 (Group III) (Apis mellifera, UniProt P00630)

## CC(=O)O[C@@H]1C[C@@H]2[C@@]3(C)CCCC(C)(C)[C@@H]3CC[C@@]2(C)[C@@H]2CC=C(C=O)[C@H](C=O)[C@@]12C [12-epi-scalaradial]
sPLA2 [1]
  IC50: 5.4 µM
sPLA2 [2]; 10 μM
  inhibition of sPLA2 activity: 75%
sPLA2 [2]; 20 μM
  inhibition of sPLA2 activity: 95%

## CCc1c(C(=O)C(N)=O)c2c(OCC(=O)O)cccc2n1Cc1ccccc1 [LY315920]
[3]
  serum group IIA secretory phospholipase A2 enzyme activity: inhibit

## CC[C@H](C)[C@H](NC(=O)[C@H](Cc1ccc(O)cc1)NC(=O)[C@@H](NC(=O)CNC(=O)[C@H](CC(=O)O)NC(=O)[C@H](Cc1c[nH]c2ccccc12)NC(=O)[C@@H](NC(=O)[C@H](Cc1cnc[nH]1)NC(=O)[C@@H](NC(=O)[C@H](CC(=O)O)NC(=O)[C@@H](NC(=O)[C@H](CCCNC(=N)N)NC(=O)CNC(=O)[C@@H](N)CC(C)C)C(C)C)[C@@H](C)CC)C(C)C)C(C)C)C(=O)N[C@@H](CCCNC(=N)N)C(=O)NCC(=O)N[C@@H](CCCNC(=N)N)C(=O)O [P-NT.II] (H-LGRVDIHVWDGVYIRGR-OH)
[4]
  IC50: 23.9 ± 2.39 µM
[5]; IC50 (mean±SD; n=3)
  IC50: 4.91 ± 2.47 µM
[5]; IC50 ranging
  IC50: 3.9 to 4.9 µM
[6]
  IC50: 5.3 µM
[7]
  IC50: 3.91 ± 1.67 µM

## biotinylated-P-NT.II: P-NT.II labeled with biotin, 0.18 mol biotin bound to 1 mol of P-NT.II (LGRVDIHVWDGVYIRGR; also: labeled with biotin, 0.18 mol biotin per mol peptide, site not given here)
Crotoxin B (Group IIA)
  ELISA reaction: reacted positively
β-bungarotoxin (Group I)
  ELISA reaction: reacted positively
Human recombinant cPLA2
  ELISA reaction: reacted positively
  binding to cPLA2 relative to sPLA2s: relatively much weaker
[8]
  ELISA reaction: reacted positively
